Source: ChEMBL document CHEMBL1201862, “PubChem BioAssay data set” (2004)
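1) Cells in 96-well plates. 2) Compound, 48 h, 5 concentrations. 3) Linear interpolation between surrounding doses. 4) Unreached endpoint = highest concentration. Abbreviation: GI50, concentration required for 50% inhibition of growth.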 Active and inactive are the calls of the source. No stated cut-off is given here; in the data, active = GI50 up to about 1.1 µM and inactive = higher.

Assays:
Experiment in all cases: growth of human tumour cells (NCI), 48 h
HCT-15 = tested on: HCT-15
NCI-H23 = tested on: NCI-H23
LOX IMVI = tested on: LOX IMVI
SR = tested on: SR
RPMI-8226 = tested on: RPMI-8226
RXF 393 = tested on: RXF 393
Hs-578T = tested on: Hs-578T
OVCAR-4 = tested on: OVCAR-4
MCF7 = tested on: MCF7
HOP-62 = tested on: HOP-62
MDA-MB-435 = tested on: MDA-MB-435
NCI-H460 = tested on: NCI-H460
UACC-62 = tested on: UACC-62
UACC-257 = tested on: UACC-257
SK-OV-3 = tested on: SK-OV-3
SF-295 = tested on: SF-295
UO-31 = tested on: UO-31
SF-268 = tested on: SF-268
OVCAR-8 = tested on: OVCAR-8
NCI-H226 = tested on: NCI-H226

Compound | GI50 (HCT-15) [µM] | GI50 (NCI-H23) | GI50 (LOX IMVI) | GI50 (SR) | GI50 (RPMI-8226) | GI50 (RXF 393) | GI50 (Hs-578T) | GI50 (OVCAR-4) | GI50 (MCF7) | GI50 (HOP-62) | GI50 (MDA-MB-435) | GI50 (NCI-H460) | GI50 (UACC-62) | GI50 (UACC-257) | GI50 (SK-OV-3) | GI50 (SF-295) | GI50 (UO-31) | GI50 (SF-268) | GI50 (OVCAR-8) | GI50 (NCI-H226)
COc1cc(/C=C2/SC(c3ccccc3)N(Cc3ccccc3)C2=O)cc(OC)c1OC (stereo not given) | 38.7 | 31.6 µM (inactive) | 34.8 µM (inactive) | 14.2 µM (inactive) | 14.4 µM (inactive) | 7.14 µM (inactive) | 40.6 µM (inactive) | 31.4 µM (inactive) | 30.3 µM (inactive) | 54.3 µM (inactive) | 53.2 µM (inactive) | 38.2 µM (inactive) | 42.5 µM (inactive) | 33.7 µM (inactive) | 41.1 µM (inactive) | 30.6 µM (inactive) | 40.5 µM (inactive) | 48.1 µM (inactive) | 37.7 µM (inactive) | 53.7 µM (inactive)
CS(=O)(=O)OCCCCOS(=O)(=O)CF | > 100 | > 100 µM (inactive) | > 100 µM (inactive) | > 73.3 µM (inactive) | > 100 µM (inactive) | > 100 µM (inactive) | > 100 µM (inactive) | > 100 µM (inactive) | > 95.1 µM (inactive) | > 100 µM (inactive) | > 100 µM (inactive) | 56 µM (inactive) | > 100 µM (inactive) | > 100 µM (inactive) | > 100 µM (inactive) | > 100 µM (inactive) | > 100 µM (inactive) | > 100 µM (inactive) | > 100 µM (inactive) | > 100 µM (inactive)
Cc1cccc(NC(=O)O/N=C(\Cl)C(C)C)c1 | 2.25 | 15.1 µM (inactive) | 1.83 µM (inactive) | 1.38 µM (inactive) | 2.96 µM (inactive) | 13.9 µM (inactive) | 23.1 µM (inactive) | 14 µM (inactive) | 10 µM (inactive) | 19 µM (inactive) | 14.5 µM (inactive) | 16.8 µM (inactive) | 15.9 µM (inactive) | 17.3 µM (inactive) | 17.7 µM (inactive) | 17.5 µM (inactive) | 16.6 µM (inactive) | 20 µM (inactive) | 19.4 µM (inactive) | 18.6 µM (inactive)
COc1cc2c(cc1OC)C1(c3ccccc3)CN(C2)Cc2cc(OC)c(OC)cc21 | 24.3 | 24.5 µM (inactive) | 34.8 µM (inactive) | 5.3 µM (inactive) | 26 µM (inactive) | 22.8 µM (inactive) | 27.5 µM (inactive) | 23.3 µM (inactive) | 33.3 µM (inactive) | 40.6 µM (inactive) | 14.5 µM (inactive) | 30.2 µM (inactive) | 32.3 µM (inactive) | 40.2 µM (inactive) | 45.8 µM (inactive) | 32.6 µM (inactive) | 80.9 µM (inactive) | 49.9 µM (inactive) | 40.6 µM (inactive) | 26.7 µM (inactive)
C/C(=N\Nc1nc2ccccc2n1C)c1ccncn1 | < 0.0186 | 0.0402 µM (active) | 0.0845 µM (active) | 0.082 µM (active) | 0.0202 µM (active) | 1.55 µM (inactive) | 3.1 µM (inactive) | 0.17 µM (active) | 0.0206 µM (active) | 5.38 µM (inactive) | 0.362 µM (active) | 0.23 µM (active) | 0.125 µM (active) | 0.0382 µM (active) | 0.182 µM (active) | 0.476 µM (active) | 0.0391 µM (active) | 0.0762 µM (active) | < 0.0238 µM (active) | 0.29 µM (active)
O=C1OI(C#Cc2ccccc2)c2ccccc21 | 3.18 | 2.38 µM (inactive) | 2.74 µM (inactive) | 1.46 µM (inactive) | 1.57 µM (inactive) | 5.43 µM (inactive) | 4.16 µM (inactive) | 3.93 µM (inactive) | 3.69 µM (inactive) | 6.41 µM (inactive) | 3.72 µM (inactive) | 3.18 µM (inactive) | 5.04 µM (inactive) | 5.2 µM (inactive) | 12.2 µM (inactive) | 13.5 µM (inactive) | 4.13 µM (inactive) | 2.84 µM (inactive) | 4.39 µM (inactive) | 5.26 µM (inactive)
COC(=O)C1[C@H](C(=O)OC)C1(Br)CBr (stereo not given in full) | > 100 | > 100 µM (inactive) | > 100 µM (inactive) | > 100 µM (inactive) | > 100 µM (inactive) | > 100 µM (inactive) | > 100 µM (inactive) | > 100 µM (inactive) | > 100 µM (inactive) | > 100 µM (inactive) | > 100 µM (inactive) | > 100 µM (inactive) | > 100 µM (inactive) | > 100 µM (inactive) | > 100 µM (inactive) | > 100 µM (inactive) | > 100 µM (inactive) | > 100 µM (inactive) | > 100 µM (inactive) | > 100 µM (inactive)
